Measured values from patent US20170209579A1, “NON-INVASIVE RADIOFREQUENCY FIELD TREATMENT FOR CANCER THERAPY” (Baylor College of Medicine, priority 2014, published 2017).

What was measured:
Hep3B orthotopic tumors = test: Orthotopic Hep3B xenografts in CB17 SCID mice, tumor mass; assay type: in vivo, mouse
From the text: For in vivo studies, an implanted mouse model of human HCC was generated in CB17SCID mice (Taconic, Hudson, N.Y.). Female mice between 4 and 5 weeks in age were purchased and acclimatized in M.D. Anderson Animal facilities for up to one week. All animals were handled, housed and studied in accordance with the Institutional Animal Care and Use Committee. Tumors were generated after orthotopic implantation of approximately 1.6 million cells into the liver of each mouse (10 mice per group). Bioluminescence imaging indicated tumor development in the majority of mice three weeks after implantation. Euthanasia was performed by carbon dioxide inhalation followed by cervical spine dislocation.
Cultured luciferase and GFP-expression human HCC cell lines (Hep3B and HepG2) were harvested from an exponentially growing culture and washed with PBS. The cells were re-suspended in 3 ml PBS and final centrifugation was performed at 1000 RPM for 5 minutes. Supernatant was discarded and the cell pellet was used for implantation. The concentration of cells achieved using this protocol was 160,000 cells per micro liter. The cells were kept on ice and animals were injected within 3-4 hours after final centrifugation.
Before surgery, hair was removed from the ventral surface of the abdomen using clippers. Mice were anesthetized using 2.5% isoflurane. The surgical field was sterilized with 70% (v/v) ethanol in water. Mice were placed supine on a heating pad and the surgical site was sterilized using povidone iodine swab sticks. After confirming induction of anesthesia, an approximately 1-cm transverse incision was made in the skin of the upper abdomen slightly left of the midline. Deeper layers of muscle and peritoneum were incised and hemostasis was achieved using silver nitrate chemical cautery sticks. By applying gentle pressure on the lower abdomen and lower chest, the left lobe of the liver was eviscerated. […]
Mice with confirmed tumors on bioluminescence were then randomized in groups of 10. […] Sample size was calculated using Stata SE 12.1 for Mac (College Station, Tex.). […]

shMre11 Hep3B cell line = test: Clonogenic assay, Mre11 knockdown (shMre11) Hep3B cell line; assay type: cell-based, human
From the text: For generating an Mre11-knockdown cell line, GPIZ lentiviral shRNA (Open biosystems, Lafayette, Colo.) was used according to the supplied protocol. In order to generate lentivirus, Hep3B cells were transfected in separate experiments with three random clones from a,shRNA library against Mre11 or a control shRNA together with a packaging plasmid (Trans-lentiviral packaging system, Open biosystems, Lafayette, Colo.) using lipofectamine 2000 (Invitrogen, Life technologies, Grand Island, N.Y.). Approximately 72 hours later, cells were observed under a microscope to express GFP, which is a marker of expression of shRNA against Mre11. Relative mre11 knockdown was confirmed by western blot analysis.
Clonogenic assay estimates single-cell reproductive viability by measuring the ability of a single cell to form a colony of 50 cells or more. Clonogenic assay in this study was performed as described previously (Franken et al., 2006). Briefly, cancer cells from an exponentially growing, sub-confluent culture were trypsinized and harvested. Approximately 200 cells were counted and plated in each well of a 6-well plate. Approximately 12 hours later, the cells were adherent and treatment conditions were introduced as described herein. […] The number of colonies in each well was counted using a colony counting grid. […]

Hep3B cells = test: Clonogenic assay, Hep3B cells; assay type: cell-based, human
Description: (§1) Clonogenic assay estimates single-cell reproductive viability by measuring the ability of a single cell to form a colony of 50 cells or more. Clonogenic assay in this study was performed as described previously (Franken et al., 2006). Briefly, cancer cells from an exponentially growing, sub-confluent culture were trypsinized and harvested. Approximately 200 cells were counted and plated in each well of a 6-well plate. Approximately 12 hours later, the cells were adherent and treatment conditions were introduced as described herein. After varying treatments, media was replaced and cells were allowed 14 days to form colonies. Subsequently, the media was aspirated and cells were washed with PBS once. Colonies were then fixed with glutaraldehyde (6.0% v/v) and stained with crystal violet (0.5% w/v) for 30 minutes on a leveled shaker at 50 RPM. The fixation and staining solution was then aspirated and the 6-well plates were air-dried after gentle rinsing with tap water. The number of colonies in each well was counted using a colony counting grid. […]
Clonogenic assays were performed on Hep3B cells and SNU449 cells after one of two combinations of hyperthermia and gemcitabine compared with hyperthermia or gemcitabine alone. […] Next, clonogenic viability was evaluated at a gemcitabine concentration of 5 ng/ml and varied the duration of hyperthermia (30 minutes to 4 hours). […]

SNU449 cells = test: Clonogenic assay, SNU449 cells; assay type: cell-based, human; conditions: irrespective of dose schedule
Description: as §1
Clonogenic assays were performed on Hep3B cells and SNU449 cells after one of two combinations of hyperthermia and gemcitabine compared with hyperthermia or gemcitabine alone. […] Next, clonogenic viability was evaluated at a gemcitabine concentration of 5 ng/ml and varied the duration of hyperthermia (30 minutes to 4 hours).

## Nc1ccn([C@@H]2O[C@H](CO)[C@@H](O)C2(F)F)c(=O)n1 [gemcitabine, 2′,2′-difluoro 2′-deoxycytidine]
Hep3B orthotopic tumors; RF then gemcitabine (RF 10 min, 600 W, immediately followed by gemcitabine)
  Mean tumor mass [±SD]: 180 ± 91 mg
Hep3B orthotopic tumors; gemcitabine alone, 70 mg/kg/dose twice a week for three weeks
  Mean tumor mass [±SD]: 661 ± 419 mg
Hep3B orthotopic tumors; gemcitabine then RF (RF 24 hours later)
  Mean tumor mass [±SD]: 291 ± 126 mg
shMre11 Hep3B cell line; clonogenic survival
  sensitivity to gemcitabine, shMre11 versus shControl cell line: more sensitive to gemcitabine
shMre11 Hep3B cell line; shControl versus shMre11 cells
  thermal enhancement of gemcitabine toxicity: noted for shControl but not shMre11 cells
Hep3B cells; Hep3B, irrespective of dose schedule
  clonogenic survival, gemcitabine combined with hyperthermia: dose-dependent enhancement of gemcitabine toxicity
Hep3B cells; gemcitabine 5 ng/ml, hyperthermia 30 minutes to 4 hours, cell line not named in the sentence (Hep3B and SNU449 in FIG. 17)
  clonogenic viability, varied duration of hyperthermia: thermal dose-dependent enhancement in toxicity
SNU449 cells
  clonogenic survival, gemcitabine combined with hyperthermia: dose-dependent enhancement of gemcitabine toxicity
